Data taken from patent US20220290184A1, “DONOR PIGS FOR XENOTRANSPLANTATION” (NZENO LIMITED, priority 2019, published 2022).
“Also recorded” adds a separate entry of the source. Marks after values point to notes of the source that are not given here. Where a SMILES comes first, the peptide text is derived from it. The star is where a group is joined. Cbz = O=C(OCc1ccccc1)*

Legend:
Type in all cases: cell-based, pig
[1] = tested on: CMAH gene; assay: CRISPR activity assay with TIDE analysis, CMAH target locus
Method: Cell culture and transfection was performed as described in Example 4 section 4.1.2.
The CRISPR activity assay was performed as described in Example 4 section 4.1.3 using the CMAH-specific CRISPRs (68rev, 165fw) and CMAH primers (CMAHF-[…] (SEQ ID NO: 48) and CMAHR-[…]3 (SEQ ID NO: 49)).

[2] = tested on: porcine SCNT embryos; assay: Zona-free somatic cell nuclear transfer (SCNT) embryo development in vitro
Method: Ovaries were sourced from pre-pubertal gilts slaughtered at the Ruakura abattoir (AgResearch, New Zealand). Cumulus-oocyte complexes (COCs) were recovered by follicular aspiration and matured in vitro (IVM) for 44 h. Two IVM systems to mature porcine oocytes were compared: biphasic (ESOF and LSOF) IVM1/2 medium containing 1 mM dibutyryl cyclic adenosine monophosphate for the first 20-24 h (Bagg et al., 2006; Somfai and Hirao, 2011) and FLI medium supplemented with FGF2, LIF and IGF1 for the entire IVM period (Yuan et al., 2017).
COCs were denuded by vortexing with 0.1% hyaluronidase (Sigma) at 2000 rpm for about 60-90 sec. Oocytes were washed twice in HEPES-buffered TCM199 medium (H199)+10% FCS. Denuded oocytes were incubated for 10 min with 0.2M sucrose in H199+10% FCS. Oocytes that maintained a regular, round shape (but smaller diameter) along with a first polar body (1PB) were selected for use.
For zona-free SCNT, pronase was used to remove the zona pellucida. Oocytes were washed thoroughly before staining DNA with 5 μg/mL H33342 plus 7.5 μg/mL cytochalasin B (all Sigma) for 5 min. A 24 μm outer diameter blunt-ended pipette was used for UV-assisted enucleation of metaphase II stage oocytes at 35° C.
Donor cells (e.g. NZK1 kidney fibroblasts) were trypsinised to a single cell suspension after 5-7 days in medium with 0.5% FCS. Single cells were adhered to each enucleated cytoplast with the aid of 20 μg/mL phytohemagglutinin in H199+3 mg/mL BSA. […] Following fusion, reconstructed embryos were held in embryo culture medium without Ca+10% FCS+5 μg/mL cytochalasin B at 38.5° C. in 5% CO2 in air for 2-4 h before activation.
To maintain high levels of maturation promoting factor-cyclin B complex in oocytes aiding nuclear reprogramming, some experiments compared the addition of 5 μM of the proteasome inhibitor MG132 (Sigma). This was added to media formulations from the time of sucrose selection of oocytes until activation of NT reconstructed embryos (Le Bourhis et al., 2010).
Activation of reconstructed NT embryos was initiated with three direct current pulses of 1.0-1.5 kV/cm for 80 μs each, in buffer containing 0.1 mM calcium, ˜50-52 h after the start of IVM.
Within 5 min of electrical stimulation, reconstructed embryos were transferred to culture medium (e.g. ESOF) supplemented with 2 mM 6-dimethylaminopurine+5 μg/mL cytochalasin B and cultured individually in 5 μL drops for 3 h at 38.5° C. In 5% CO2. Afterwards, embryos were washed thoroughly in HEPES SOF before in vitro culture for 6-7 days. […] Embryo development was assessed on Day 6 or 7 and the numbers of nuclei in resulting blastocysts determined in selected experiments.

[3] = tested on: parthenogenetically activated porcine oocytes; assay: Parthenogenetic oocyte activation (PG) embryo development in vitro; settings: PG embryos; 5 μM MG132 from oocyte selection until activation
[4] = SCNT embryos, 5 μM MG132 from oocyte selection until activation

Molecule | CRISPR activity compared to the second CMAH CRISPR 165fw [1] | Benefit in terms of in vitro development following SCNT or PG ([2]; 5 μM MG132 between oocyte selection and activation, preliminary experiment) | Blastocyst Development Day 7 [2, 4] [%^b] | Cleavage [2, 4] [%] | Fusion [2, 4] [%] | Blastocyst Development Day 7 [3] [%] | Cleavage [3] [%]
68rev: guide RNA targeting exon 3 of CMAH, TAAGAATAAGAGCCGCCTGA (SEQ ID NO: 46) (listed as DNA, chemistry not given here) | higher activity |  |  |  |  |  | 
CC(C)C[C@@H](C=O)NC(=O)[C@H](CC(C)C)NC(=O)[C@H](CC(C)C)NC(=O)OCc1ccccc1 [MG132] (Cbz-Leu-Leu-Leu-aldehyde) |  | unable to show any benefit; also recorded: showed no benefit | 11 | 99 | 49 | 23 | 100
